The values below come from patent US20030216569A1, “Method of making HIV protease inhibitors” (priority 1993, published 2003).

Series [1] has as its target HIV-1 protease (Human immunodeficiency virus type 1 group M subtype B, UniProt P04585). As to the kind of experiment: Fluorescence HIV-1 Protease Inhibitor Assay (Pandex). Type of series: biochemical. Set-up: made in house; host or cells: E. coli K12 L507/pHP10D (NRRL B-18560). As to conditions: normalized to positive control (=1.0); * = a calculated average; read-out: Fluorescence Assay IC50 in ng/mL (converted).

For the compound `CC(C)(C)NC(=O)c1ccccc1C[C@@H](O)[C@@H](CSc1ccc2ccccc2c1)NC(=O)c1cccc2ccccc12` [Example 61, [2′R-(2′R*,3′S*)]-N-t-Butyl-2-[2′-hydroxy-3′-naphth-2-ylthiomethyl-4′-aza-5′-oxo-5′-(naphth-1″-yl)pentyl] benzamide], the melting point (commonly the temperature of the solid-liquid transition) was 92 to 95 °C. Besides, in series [1], the IC50 is 2770 nM.
In turn, `CC(C)(C)NC(=O)c1c(CC(O)C(CSc2ccc3ccccc3c2)NC(=O)c2cccc(N)c2Cl)ccc2ccccc12` (stereo not drawn) [Example 49, [2′R-(2′R*,3′S*)]-N-t-Butyl-2-[2′-hydroxy-3′-naphth-2-ylthiomethyl-4′-aza-5′-oxo-5′-(2″-chloro-3″-aminophenyl)pentyl]-1-naphthylamide] had a melting point of 110 to 112 °C. The IC50 in series [1] was 137 nM.
`CN1CCc2c(cccc2C(=O)N[C@@H](CSc2ccc3ccccc3c2)[C@H](O)Cc2ccccc2C(=O)NC(C)(C)C)C1` (relative stereo) [Example 59, [2′R-(2′R*,3′S*)]-N-t-Butyl-2-[2′-hydroxy-3′-naphth-2-ylthiomethyl-4′-aza-5′-oxo-5′-[2-N′(methyl)-1″,2″,3″,4″-tetrahydroisoquinolin-5″-yl)pentyl] benzamide]: the melting point lay in the range of 110 to 113 °C. The IC50 in series [1] is 587 nM.
In the same order, the values of `CC(C)(C)NC(=O)c1ccccc1C[C@@H](O)[C@@H](CSc1ccc2ccccc2c1)NC(=O)c1cccc2[nH]ccc12` [Example 62, [2′R-(2′R*,3′S*)]-N-t-Butyl-2-[2′-hydroxy-3′-naphth-2-ylthiomethyl-4′-aza-5′-oxo-5′-(indol-4″-yl)pentyl] benzamide] are 109 to 110 °C and 350 nM.
In the same order, the values of `Cc1c(C(=O)NC(CSc2ccc3ccccc3c2)C(O)Cc2ccccc2C(=O)NC(C)(C)C)cccc1[N+](=O)[O-]` (stereo not drawn) [Example 67, [2′R-(2′R*,3′S*)]-N-t-Butyl-2-[2′-hydroxy-3′-naphth-2-hiomethyl-4′-aza-5′-oxo-5′-(2″-methyl-3″-nitrophenyl)pentyl] benzamide] are 80 to 81 °C and 927 nM.
In the same order, the values of `CC(C)(C)NC(=O)c1ccccc1CC(O)C(CSc1ccc2ccccc2c1)NC(=O)c1cccc(N)c1Br` (stereo not drawn) [Example 45, [2′R-(2′R*,3′S*)]-N-t-Butyl-2-[2′-hydroxy-3′-naphth-2-ylthiomethyl-4′-aza-5′-oxo-5′-(2″-bromo-3″-aminophenyl)pentyl] benzamide] are 110 to 112 °C and 214 nM.
Compound `CC(C)(C)NC(=O)c1ccccc1CC(O)C(CSc1ccc2ccccc2c1)NC(=O)c1cccc(N)c1` (stereo not drawn) [Example 50, [2′R-(2′R*,3′S*)]-N-t-Butyl-2-[2′-hydroxy-3′-naphth-2-ylthiomethyl-4′-aza-5′-oxo-5′-(3″-aminophenyl)pentyl] benzamide] showed a melting point of 101 to 102 °C. In addition, the IC50 in series [1] was 222 nM.
Take `CC(C)(C)NC(=O)c1ccccc1CC(O)C(CSc1ccc2ccccc2c1)NC(=O)c1ccc(N)c(O)c1` (stereo not drawn) [Example 73, [2′R-(2′R*,3′S*)]-N-t-Butyl-2-[2′-hydroxy-3′-naphth-2-ylthiomethyl-4′-aza-5′-oxo-5′-(3″-hydroxy-4″-aminophenyl)pentyl] benzamide]: the melting point lay in the range of 119 to 122 °C. For the same compound, in series [1], the IC50 is 3480 nM.
